How the values were obtained:
[1] = target: T1, DDR2 (Homo sapiens, UniProt Q16832); assay: DDR2 cell based assay (phospho-ELISA in HEK293T-DDR2 recombinant cells); parameters: expressed in transfected cells; host or cells: HEK293T-DDR2 recombinant cells; settings: bovine Type II Collagen 50 μg/ml
T1 sequence (Q16832 22-855): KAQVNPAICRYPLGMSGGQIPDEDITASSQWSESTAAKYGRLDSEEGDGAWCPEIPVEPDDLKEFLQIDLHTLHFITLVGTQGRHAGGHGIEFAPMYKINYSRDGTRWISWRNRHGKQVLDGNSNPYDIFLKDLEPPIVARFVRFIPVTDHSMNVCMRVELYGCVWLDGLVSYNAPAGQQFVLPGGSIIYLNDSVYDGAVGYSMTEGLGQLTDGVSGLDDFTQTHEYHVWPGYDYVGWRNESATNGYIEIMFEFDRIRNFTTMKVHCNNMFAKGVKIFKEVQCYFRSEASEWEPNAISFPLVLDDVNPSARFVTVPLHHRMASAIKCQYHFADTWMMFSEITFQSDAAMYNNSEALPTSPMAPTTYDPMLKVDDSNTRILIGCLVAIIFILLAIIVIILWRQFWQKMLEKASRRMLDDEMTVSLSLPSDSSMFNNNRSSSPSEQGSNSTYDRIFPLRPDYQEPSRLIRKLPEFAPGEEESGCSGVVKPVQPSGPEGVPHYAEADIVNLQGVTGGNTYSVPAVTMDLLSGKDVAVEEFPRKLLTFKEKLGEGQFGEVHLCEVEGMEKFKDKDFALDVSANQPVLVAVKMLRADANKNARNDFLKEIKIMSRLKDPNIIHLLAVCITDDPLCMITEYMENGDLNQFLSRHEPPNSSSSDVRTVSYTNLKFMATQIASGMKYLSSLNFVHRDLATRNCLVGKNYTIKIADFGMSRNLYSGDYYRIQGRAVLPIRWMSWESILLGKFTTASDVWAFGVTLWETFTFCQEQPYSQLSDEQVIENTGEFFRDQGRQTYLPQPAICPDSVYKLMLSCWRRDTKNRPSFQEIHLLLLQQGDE
Method: The inhibition of DDR2 phosphorylation by compounds was evaluated in HEK293T-DDR2 recombinant cells by phospho-ELISA assay. Briefly, HEK293T-DDR2 cells were seeded in poly-D-lysine-coated 24-well plates at a density of 250.000 cells/well and incubated for 1.5 hours at 37° C. and 5% CO2 in DMEM+10% FBS. After that, the medium was changed to serum-free DMEM and cells were incubated for 3 hours. Then. test compounds were added at different concentrations 30 minutes before stimulation with bovine Type II Collagen at 50 μg/ml for further 3 hours. For DDR2 phospho-ELISA assay (DuoSet IC Human Phospho-DDR2; R&D Systems), protein extracts were obtained by adding 60 μl/well of lysis buffer prepared according to the manufacturer's instructions. Protein concentration in the samples was determined by BCA assay and the levels of phospho-DDR2 were determined following R&D Systems indications. Raw data were normalized to maximal inhibition control (0% for normalization) and positive control (100% for normalization; cells treated with […] collagen II) and IC50 parameters were calculated in GraphPad Prism 8.0 software, using sigmoidal dose-response curve fitting with variable slope.

[2] = target: T2, DDR1 (Homo sapiens, UniProt Q08345); assay: DDR1 cell based assay (PathHunter U2OS DDR1 assay); parameters: host or cells: U2OS-DDR1 (PathHunter); settings: U2OS-DDR1 cells, bovine Type II Collagen 20 μg/ml
How it was run: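 Receptor activation measured by enzyme-fragment complementation luminescence in engineered U2OS cells. Compound added 30 min before overnight challenge with 20 μg/ml bovine collagen II; data scaled between vehicle and collagen-stimulated controls, IC50 derived by four-parameter variable-slope fitting.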

[3] = target: T2, DDR1; assay: DDR1 binding assay (LanthaScreen Europium Kinase Binding assay); parameters: purchased Carna Biosciences; settings: binding assay, 5 nM DDR1, 20 nM Kinase Tracer 178; Ki from IC50 by Cheng-Prusoff; read-out: Ki DDR1
How it was run: (§1)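 TR-FRET tracer-displacement format: 665/615 nm emission ratio (340 nm excitation) gave IC50 by 4-parameter fit, then Ki via Cheng-Prusoff. Each kinase at 5 nM with 2 nM Eu-anti-GST antibody and Tracer 178 (DDR1 20 nM, DDR2 10 nM), 1 h, room temperature, HEPES pH 7.5 buffer.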

[4] = target: T1, DDR2; assay: DDR2 binding assay (LanthaScreen Europium Kinase Binding assay); parameters: purchased Life Technologies; settings: binding assay, 5 nM DDR2, 10 nM Kinase Tracer 178; Ki from IC50 by Cheng-Prusoff; read-out: Ki DDR2
How it was run: as §1

T2 sequence (Q08345 19-913): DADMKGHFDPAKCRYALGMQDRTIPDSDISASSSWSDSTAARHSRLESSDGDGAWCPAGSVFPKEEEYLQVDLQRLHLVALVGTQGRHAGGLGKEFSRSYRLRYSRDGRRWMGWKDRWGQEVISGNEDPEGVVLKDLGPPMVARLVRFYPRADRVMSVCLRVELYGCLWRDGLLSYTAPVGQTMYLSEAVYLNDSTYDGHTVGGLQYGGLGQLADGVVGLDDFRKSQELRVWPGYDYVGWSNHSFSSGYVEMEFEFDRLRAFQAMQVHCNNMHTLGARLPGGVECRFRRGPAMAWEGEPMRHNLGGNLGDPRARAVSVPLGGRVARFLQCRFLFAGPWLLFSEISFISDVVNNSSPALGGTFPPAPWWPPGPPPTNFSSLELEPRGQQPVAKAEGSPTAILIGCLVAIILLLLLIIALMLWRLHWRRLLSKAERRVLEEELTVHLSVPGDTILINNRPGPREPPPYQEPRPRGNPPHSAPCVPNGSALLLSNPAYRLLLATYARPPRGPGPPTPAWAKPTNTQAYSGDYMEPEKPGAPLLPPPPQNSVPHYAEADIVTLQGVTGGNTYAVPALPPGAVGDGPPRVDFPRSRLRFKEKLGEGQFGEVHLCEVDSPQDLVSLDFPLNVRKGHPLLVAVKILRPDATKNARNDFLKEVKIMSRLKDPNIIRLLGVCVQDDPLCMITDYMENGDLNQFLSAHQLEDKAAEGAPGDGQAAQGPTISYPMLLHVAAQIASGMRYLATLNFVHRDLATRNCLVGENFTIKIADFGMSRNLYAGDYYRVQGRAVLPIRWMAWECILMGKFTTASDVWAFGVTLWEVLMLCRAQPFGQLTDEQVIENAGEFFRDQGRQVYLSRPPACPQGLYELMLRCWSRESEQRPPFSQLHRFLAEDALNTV

Row | Structure (SMILES) | IC50 [1] [nM] | IC50 [2] [nM] | Ki [3] [nM] | Ki [4] [nM]
1 | CN1CCN(Cc2cc(NC(=O)c3csc4c3CCN(C(=O)c3cnc5ccccn35)C4)cc(C(F)(F)F)c2)CC1 [Example 1, 6-(imidazo[1,2-a]pyridine-3-carbonyl)-N-(3-((4-methylpiperazin-1-yl)methyl)-5-(trifluoromethyl)phenyl)-4,5,6,7-tetrahydrothieno[2,3-c]pyridine-3-carboxamide] | < 25 | 25 to 50 | < 25 | < 25
2 | Cn1nc(C(C)(C)C)cc1NC(=O)c1csc2c1CCN(C(=O)c1cnc3ccccn13)C2 [Example 3, N-(3-(tert-butyl)-1-methyl-1H-pyrazol-5-yl)-6-(imidazo[1,2-a]pyridine-3-carbonyl)-4,5,6,7-tetrahydrothieno[2,3-c]pyridine-3-carboxamide] | < 25 | < 25 | < 25 | < 25
3 | COc1ccc(NC(=O)c2csc3c2CCN(C(=O)c2cnc4ccccn24)C3)cc1C(F)(F)F [Example 4, 6-(imidazo[1,2-a]pyridine-3-carbonyl)-N-(4-methoxy-3-(trifluoromethyl)phenyl)-4,5,6,7-tetrahydrothieno[2,3-c]pyridine-3-carboxamide] | < 25 | < 25 | < 25 | < 25
4 | O=C(Nc1cccc(C(F)(F)F)c1)c1csc2c1CCN(C(=O)c1cnc3ccccn13)C2 [Example 7, 6-(imidazo[1,2-a]pyridine-3-carbonyl)-N-(3-(trifluoromethyl)phenyl)-4,5,6,7-tetrahydrothieno[2,3-c]pyridine-3-carboxamide] | < 25 | < 25 | < 25 | < 25
5 | O=C(Nc1cccc(OC(F)(F)F)c1)c1csc2c1CCN(C(=O)c1cnc3ccccn13)C2 [Example 8, 6-(imidazo[1,2-a]pyridine-3-carbonyl)-N-(3-(trifluoromethoxy)phenyl)-4,5,6,7-tetrahydrothieno[2,3-c]pyridine-3-carboxamide] | < 25 | < 25 | < 25 | < 25
6 | CC(C)(c1cc(NC(=O)c2csc3c2CCN(C(=O)c2cnc4ccccn24)C3)no1)C(F)(F)F [Example 9, 6-(imidazo[1,2-a]pyridine-3-carbonyl)-N-(5-(1,1,1-trifluoro-2-methylpropan-2-yl)isoxazol-3-yl)-4,5,6,7-tetrahydrothieno[2,3-c]pyridine-3-carboxamide] | < 25 | < 25 | < 25 | < 25
7 | O=C(Nc1ccc(OC2CCOC2)c(C(F)(F)F)c1)c1csc2c1CCN(C(=O)c1cnc3ccccn13)C2 (stereo not shown) [Example 12, 6-(imidazo[1,2-a]pyridine-3-carbonyl)-N-(4-((tetrahydrofuran-3-yl)oxy)-3-(trifluoromethyl)phenyl)-4,5,6,7-tetrahydrothieno[2,3-c]pyridine-3-carboxamide] | < 25 | < 25 | < 25 | < 25
8 | O=C(Nc1cc(CN2CCOCC2)cc(C(F)(F)F)c1)c1csc2c1CCN(C(=O)c1cnc3ccccn13)C2 [Example 20, 6-(imidazo[1,2-a]pyridine-3-carbonyl)-N-(3-(morpholinomethyl)-5-(trifluoromethyl)phenyl)-4,5,6,7-tetrahydrothieno[2,3-c]pyridine-3-carboxamide] | < 25 | < 25 | < 25 | < 25
9 | O=C(Nc1ccc(CN2CCOCC2)c(C(F)(F)F)c1)c1csc2c1CCN(C(=O)c1cnc3ccccn13)C2 [Example 23, 6-(imidazo[1,2-a]pyridine-3-carbonyl)-N-(4-(morpholinomethyl)-3-(trifluoromethyl)phenyl)-4,5,6,7-tetrahydrothieno[2,3-c]pyridine-3-carboxamide] | 25 to 50 | < 25 | < 25 | < 25
10 | O=C(Nc1cc(OCCN2CCOCC2)cc(C(F)(F)F)c1)c1csc2c1CCN(C(=O)c1cnc3ccccn13)C2 [Example 24, 6-(imidazo[1,2-a]pyridine-3-carbonyl)-N-(3-(2-morpholinoethoxy)-5-(trifluoromethyl)phenyl)-4,5,6,7-tetrahydrothieno[2,3-c]pyridine-3-carboxamide] | 25 to 50 | < 25 | < 25 | < 25
11 | O=C(Nc1cc(F)cc(C(F)(F)F)c1)c1csc2c1CCN(C(=O)c1cnc3ccccn13)C2 [Example 46, N-(3-fluoro-5-(trifluoromethyl)phenyl)-6-(imidazo[1,2-a]pyridine-3-carbonyl)-4,5,6,7-tetrahydrothieno[2,3-c]pyridine-3-carboxamide] | < 25 | < 25 | < 25 | < 25
12 | O=C(Nc1cccc(OC(F)(F)F)c1)c1csc2c1CCN(Cc1cnc3[nH]ncc3c1)C2 [Example 66, 6-((1H-pyrazolo[3,4-b]pyridin-5-yl)methyl)-N-(3-(trifluoromethoxy)phenyl)-4,5,6,7-tetrahydrothieno[2,3-c]pyridine-3-carboxamide] | < 25 | < 25 | < 25 | < 25
13 | O=C(Nc1cc(F)cc(C(F)(F)F)c1)c1csc2c1CCN(Cc1cnc3[nH]ncc3c1)C2 [Example 67, 6-((1H-pyrazolo[3,4-b]pyridin-5-yl)methyl)-N-(3-fluoro-5-(trifluoromethyl)phenyl)-4,5,6,7-tetrahydrothieno[2,3-c]pyridine-3-carboxamide] | 25 to 50 | < 25 | < 25 | < 25
14 | O=C(Nc1cccc(C(F)(F)F)c1)c1csc2c1CCN(Cc1cnc3[nH]ccc3c1)C2 [Example 69, 6-((1H-pyrrolo[2,3-b]pyridin-5-yl)methyl)-N-(3-(trifluoromethyl)phenyl)-4,5,6,7-tetrahydrothieno[2,3-c]pyridine-3-carboxamide] | 25 to 50 | < 25 | < 25 | < 25
15 | Cn1nc(C(C)(C)C)cc1NC(=O)c1csc2c1CCN(Cc1cnc3[nH]ccc3c1)C2 [Example 70, 6-((1H-pyrrolo[2,3-b]pyridin-5-yl)methyl)-N-(3-(tert-butyl)-1-methyl-1H-pyrazol-5-yl)-4,5,6,7-tetrahydrothieno[2,3-c]pyridine-3-carboxamide] | 25 to 50 | < 25 | < 25 | < 25
16 | COc1ccc(NC(=O)c2csc3c2CCN(Cc2cnc4[nH]ccc4c2)C3)cc1C(F)(F)F [Example 71, 6-((1H-pyrrolo[2,3-b]pyridin-5-yl)methyl)-N-(4-methoxy-3-(trifluoromethyl)phenyl)-4,5,6,7-tetrahydrothieno[2,3-c]pyridine-3-carboxamide] | < 25 | < 25 | < 25 | < 25

Reference: patent publication US20240391936A1, “TETRAHYDROTHIENO PYRIDINE DERIVATIVES AS DDRS INHIBITORS” (CHIESI FARMACEUTICI S.P.A., priority 2021, published 2024)
